Data from ChEMBL document CHEMBL6153089, “Design, Synthesis, and Biological Evaluation of Thieno[3,2-d]pyrimidine Derivatives as the First Bifunctional PI3Kδ Isoform Selective/Bromodomain and Extra-Terminal Inhibitors” (J Med Chem, 2025).

Columns and labels:
[1] = Half-life in female BALB/c mouse at 20 mg/kg, po measured after 24 hrs by LC-MS/MS analysis; format: ADME, organism-based; details: in vivo
SUD4 = assay: Antiproliferative against activity human SU-DHL-4 cells assessed as inhibition of cell growth incubated for 72 hrs by Celltiter-luminescence analysis; format: functional, cell-based; details: SU-DHL-4, 72 h
[2] = molecular target: PI3-kinase p110-delta/p85-alpha (Homo sapiens, UniProt O00329); assay: Inhibition of p110delta/p85alpha (unknown origin) incubated for 2 hrs in presence of ATP by ADP-kinaseGlo reagent based assay; format: protein-complex assay
SU-DHL-6 [3] = assay: Induction of apoptosis in human SU-DHL-6 cells assessed as necrotic cells at 0.5 uM incubated for 24 hrs by Annexin V-FITC/PI staining based flow cytometric analysis (reference value: 0.246 %); format: functional
[4] = molecular target: Phosphatidylinositol 4-phosphate 5-kinase type-1 alpha (Homo sapiens) (UniProt Q99755); assay: Inhibition of human PIP5K1alpha at 1 uM relative to control
SU-DHL-6 [5] = assay: Induction of apoptosis in human SU-DHL-6 cells assessed as early apoptotic cells at 1 uM incubated for 24 hrs by Annexin V-FITC/PI staining based flow cytometric analysis (reference value: 32.1 %); format: functional
[6] = Half-life in female BALB/c mouse at 1 mg/kg, iv measured after 12 hrs by LC-MS/MS analysis; format: ADME, organism-based; details: in vivo
SU-DHL-6 [7] = assay: Antiproliferative activity against human SU-DHL-6 cells assessed as inhibition of cell proliferation by measuring reduction in cell count incubated for 6 days by photographic analysis; format: functional, cell-based; details: dose 12.5-50 nM, time 6.0 day
[8] = molecular target: Phosphatidylinositol 4-phosphate 5-kinase type-1 gamma (Homo sapiens) (UniProt O60331); assay: Inhibition of human PIP5K1gamma at 1 uM relative to control
[9] = Tmax in female BALB/c mouse at 20 mg/kg, po measured after 24 hrs by LC-MS/MS analysis; format: ADME, organism-based; details: in vivo
[10] = molecular target: PI3-kinase p110-alpha/p85-alpha (Homo sapiens, UniProt P42336); assay: Inhibition of p110alpha/p85alpha (unknown origin) incubated for 2 hrs in presence of ATP by ADP-kinaseGlo reagent based assay; format: protein-complex assay
[11] = molecular target: Serine/threonine-protein kinase mTOR (Homo sapiens, UniProt P42345); assay: Inhibition of mTOR (unknown origin) incubated for 2 hrs in presence of ATP by ADP-kinaseGlo reagent based assay
SU-DHL-6 [12] = assay: Induction of apoptosis in human SU-DHL-6 cells assessed as necrotic cells at 1 uM incubated for 24 hrs by Annexin V-FITC/PI staining based flow cytometric analysis (reference value: 0.246 %); format: functional
[13] = Oral bioavailability in female BALB/c mouse at 20 mg/kg measured after 24 hrs by LC-MS/MS analysis; format: ADME, organism-based; details: in vivo
[14] = molecular target: Phosphatidylinositol 4-phosphate 3-kinase C2 domain-containing subunit alpha (Homo sapiens) (UniProt O00443); assay: Inhibition of human PI3KC2alpha at 1 uM relative to control
Sequence of Phosphatidylinositol 4-phosphate 3-kinase C2 domain-containing subunit alpha (Homo sapiens) (O00443 whole entry, the tested form may be a part): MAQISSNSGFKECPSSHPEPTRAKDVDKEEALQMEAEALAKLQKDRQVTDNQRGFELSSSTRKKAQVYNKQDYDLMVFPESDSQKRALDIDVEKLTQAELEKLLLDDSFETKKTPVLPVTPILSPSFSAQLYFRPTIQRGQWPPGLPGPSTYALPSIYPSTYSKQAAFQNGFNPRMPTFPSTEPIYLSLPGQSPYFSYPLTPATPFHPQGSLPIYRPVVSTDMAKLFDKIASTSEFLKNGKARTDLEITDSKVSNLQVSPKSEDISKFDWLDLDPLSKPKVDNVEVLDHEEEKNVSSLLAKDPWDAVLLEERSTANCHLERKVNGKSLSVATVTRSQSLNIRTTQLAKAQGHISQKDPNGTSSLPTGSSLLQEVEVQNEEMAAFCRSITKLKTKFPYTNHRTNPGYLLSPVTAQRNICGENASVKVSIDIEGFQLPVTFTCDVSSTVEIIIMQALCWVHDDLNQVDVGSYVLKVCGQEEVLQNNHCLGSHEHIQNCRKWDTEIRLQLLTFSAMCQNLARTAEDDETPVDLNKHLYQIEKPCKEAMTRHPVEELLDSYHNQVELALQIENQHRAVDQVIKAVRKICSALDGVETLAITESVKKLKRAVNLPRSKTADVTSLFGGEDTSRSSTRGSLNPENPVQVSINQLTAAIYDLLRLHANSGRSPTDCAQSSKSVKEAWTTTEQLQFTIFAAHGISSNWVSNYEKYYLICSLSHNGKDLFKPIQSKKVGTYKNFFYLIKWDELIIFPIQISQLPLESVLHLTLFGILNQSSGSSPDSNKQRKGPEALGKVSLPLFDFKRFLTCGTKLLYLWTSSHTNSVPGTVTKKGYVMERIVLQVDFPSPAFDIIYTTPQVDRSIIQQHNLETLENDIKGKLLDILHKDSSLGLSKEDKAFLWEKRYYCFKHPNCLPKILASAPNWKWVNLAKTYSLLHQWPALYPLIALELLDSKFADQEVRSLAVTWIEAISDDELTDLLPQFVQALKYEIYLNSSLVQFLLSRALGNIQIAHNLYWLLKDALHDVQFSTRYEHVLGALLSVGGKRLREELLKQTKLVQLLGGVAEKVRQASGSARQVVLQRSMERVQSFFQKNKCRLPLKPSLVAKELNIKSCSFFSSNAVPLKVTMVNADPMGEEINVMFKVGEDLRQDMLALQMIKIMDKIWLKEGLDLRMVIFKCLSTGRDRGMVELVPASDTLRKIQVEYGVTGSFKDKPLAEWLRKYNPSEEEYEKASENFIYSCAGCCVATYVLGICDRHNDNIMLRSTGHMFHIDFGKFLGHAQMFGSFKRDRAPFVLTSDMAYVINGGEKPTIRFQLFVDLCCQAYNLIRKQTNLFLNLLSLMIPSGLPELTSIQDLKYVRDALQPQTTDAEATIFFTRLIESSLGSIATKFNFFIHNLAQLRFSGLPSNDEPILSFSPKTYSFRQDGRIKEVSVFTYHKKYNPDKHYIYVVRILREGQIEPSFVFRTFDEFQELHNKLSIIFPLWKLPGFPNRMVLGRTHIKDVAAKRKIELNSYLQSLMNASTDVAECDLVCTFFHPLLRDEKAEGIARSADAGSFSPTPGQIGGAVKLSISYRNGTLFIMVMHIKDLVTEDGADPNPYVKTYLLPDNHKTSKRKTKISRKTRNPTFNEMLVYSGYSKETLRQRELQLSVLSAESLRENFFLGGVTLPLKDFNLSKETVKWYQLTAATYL

Sequence of Phosphatidylinositol 4-phosphate 5-kinase type-1 gamma (Homo sapiens) (O60331 whole entry): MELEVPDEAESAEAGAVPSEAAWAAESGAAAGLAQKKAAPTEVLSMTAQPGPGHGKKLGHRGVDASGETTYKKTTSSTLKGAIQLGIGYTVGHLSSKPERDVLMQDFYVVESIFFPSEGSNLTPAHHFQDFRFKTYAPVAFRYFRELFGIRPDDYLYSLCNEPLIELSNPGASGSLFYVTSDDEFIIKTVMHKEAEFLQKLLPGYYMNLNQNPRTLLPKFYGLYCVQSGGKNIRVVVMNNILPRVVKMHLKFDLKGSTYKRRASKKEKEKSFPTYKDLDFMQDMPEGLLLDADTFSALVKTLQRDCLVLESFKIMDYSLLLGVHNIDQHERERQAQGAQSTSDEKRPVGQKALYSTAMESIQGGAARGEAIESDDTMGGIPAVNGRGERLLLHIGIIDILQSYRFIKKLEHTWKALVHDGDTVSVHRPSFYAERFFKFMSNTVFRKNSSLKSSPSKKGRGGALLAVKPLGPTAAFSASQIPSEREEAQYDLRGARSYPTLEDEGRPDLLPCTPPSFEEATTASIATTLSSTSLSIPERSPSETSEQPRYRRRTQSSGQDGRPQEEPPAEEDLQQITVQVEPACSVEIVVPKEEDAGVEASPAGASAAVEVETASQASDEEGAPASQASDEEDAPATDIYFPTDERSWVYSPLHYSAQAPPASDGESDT
Sequence of PI3-kinase p110-alpha/p85-alpha (P27986 whole entry): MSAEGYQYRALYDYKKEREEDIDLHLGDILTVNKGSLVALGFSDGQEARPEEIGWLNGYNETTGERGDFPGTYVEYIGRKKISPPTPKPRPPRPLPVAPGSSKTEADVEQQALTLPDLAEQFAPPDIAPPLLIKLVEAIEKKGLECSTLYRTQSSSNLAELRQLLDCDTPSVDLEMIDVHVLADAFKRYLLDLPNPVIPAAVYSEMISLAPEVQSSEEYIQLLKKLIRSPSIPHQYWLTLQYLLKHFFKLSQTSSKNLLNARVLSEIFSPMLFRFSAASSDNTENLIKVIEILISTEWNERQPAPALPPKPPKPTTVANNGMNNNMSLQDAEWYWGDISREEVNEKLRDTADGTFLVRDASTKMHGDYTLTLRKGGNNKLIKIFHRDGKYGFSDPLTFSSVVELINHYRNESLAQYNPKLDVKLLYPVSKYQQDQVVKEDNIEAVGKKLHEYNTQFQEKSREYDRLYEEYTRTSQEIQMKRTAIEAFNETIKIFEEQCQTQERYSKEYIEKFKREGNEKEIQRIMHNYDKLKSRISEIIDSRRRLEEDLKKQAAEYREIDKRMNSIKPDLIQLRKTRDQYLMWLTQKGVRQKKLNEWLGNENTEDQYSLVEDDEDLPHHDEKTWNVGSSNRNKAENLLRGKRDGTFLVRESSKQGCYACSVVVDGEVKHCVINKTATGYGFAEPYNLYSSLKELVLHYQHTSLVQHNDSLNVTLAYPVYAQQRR
Sequence of PI3-kinase p110-alpha/p85-alpha (P42336 whole entry): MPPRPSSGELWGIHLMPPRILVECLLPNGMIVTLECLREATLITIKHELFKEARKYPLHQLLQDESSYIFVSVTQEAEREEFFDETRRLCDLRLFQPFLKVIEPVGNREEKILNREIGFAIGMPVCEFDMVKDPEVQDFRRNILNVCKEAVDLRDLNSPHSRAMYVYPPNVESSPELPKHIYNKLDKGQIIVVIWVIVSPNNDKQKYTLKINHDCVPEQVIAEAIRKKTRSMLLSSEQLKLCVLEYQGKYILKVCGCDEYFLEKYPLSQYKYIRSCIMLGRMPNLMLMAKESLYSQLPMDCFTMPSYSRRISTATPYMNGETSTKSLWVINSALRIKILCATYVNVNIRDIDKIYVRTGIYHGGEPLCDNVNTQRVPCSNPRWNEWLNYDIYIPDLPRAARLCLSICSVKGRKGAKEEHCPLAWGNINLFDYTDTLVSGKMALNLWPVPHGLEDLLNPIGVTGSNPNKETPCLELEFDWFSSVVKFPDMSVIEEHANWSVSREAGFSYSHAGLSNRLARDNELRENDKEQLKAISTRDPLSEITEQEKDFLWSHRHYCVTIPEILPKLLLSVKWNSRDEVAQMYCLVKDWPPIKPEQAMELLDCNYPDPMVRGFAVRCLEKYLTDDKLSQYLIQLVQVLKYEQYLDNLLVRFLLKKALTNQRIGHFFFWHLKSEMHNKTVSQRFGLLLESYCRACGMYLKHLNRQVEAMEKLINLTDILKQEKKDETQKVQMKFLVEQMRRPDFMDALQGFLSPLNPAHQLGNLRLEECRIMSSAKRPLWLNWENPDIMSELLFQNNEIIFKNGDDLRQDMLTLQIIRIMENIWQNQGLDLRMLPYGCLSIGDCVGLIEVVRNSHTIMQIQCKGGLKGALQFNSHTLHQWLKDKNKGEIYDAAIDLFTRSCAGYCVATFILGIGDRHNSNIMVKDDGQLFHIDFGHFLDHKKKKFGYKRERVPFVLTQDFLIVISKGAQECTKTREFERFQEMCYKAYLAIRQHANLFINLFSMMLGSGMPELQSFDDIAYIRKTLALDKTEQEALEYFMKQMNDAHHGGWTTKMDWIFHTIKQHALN
Sequence of Phosphatidylinositol 4-phosphate 5-kinase type-1 alpha (Homo sapiens) (Q99755 whole entry): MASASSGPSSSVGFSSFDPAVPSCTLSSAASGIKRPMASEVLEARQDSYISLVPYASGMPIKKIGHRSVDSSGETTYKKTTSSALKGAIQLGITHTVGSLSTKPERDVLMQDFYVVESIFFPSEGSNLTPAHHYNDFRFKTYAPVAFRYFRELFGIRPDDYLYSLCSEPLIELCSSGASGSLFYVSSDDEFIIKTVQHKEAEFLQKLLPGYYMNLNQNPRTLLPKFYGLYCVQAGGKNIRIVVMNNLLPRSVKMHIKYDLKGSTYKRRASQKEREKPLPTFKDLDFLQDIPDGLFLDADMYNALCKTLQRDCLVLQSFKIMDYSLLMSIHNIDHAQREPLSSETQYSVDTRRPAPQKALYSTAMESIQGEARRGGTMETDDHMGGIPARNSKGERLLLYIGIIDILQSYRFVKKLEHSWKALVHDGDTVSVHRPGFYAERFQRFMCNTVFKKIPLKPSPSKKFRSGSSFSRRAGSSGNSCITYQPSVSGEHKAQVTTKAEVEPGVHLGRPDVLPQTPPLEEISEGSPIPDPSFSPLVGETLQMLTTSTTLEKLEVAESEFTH

## Cn1cc(-c2nc(N3CCOCC3)c3sc(CN4CCC(C(C)(C)O)CC4)cc3n2)c2cc[nH]c2c1=O
[1]
  half-life: 3.8 h
SUD4
  IC50: 91 nM
[2]
  IC50: 112 nM
SU-DHL-6 [3]
  Activity: 0.67%
[4]
  inhibition: 72.6%
SU-DHL-6 [5]
  Activity: 48.9%
[6]
  half-life: 2 h
SU-DHL-6 [7]
  Activity: Dose-dependent-effect; Stronger Effect Observed At Lower Concentration Than Those Of Sf2523
[8]
  inhibition: 75.7%
[9]
  Tmax: 0.5 h
[10]
  IC50: 6130 nM
[11]
  IC50: > 10000 nM
SU-DHL-6 [12]
  Activity: 0.58%
[13]
  bioavailability: 74.8%
[14]
  inhibition: 3.4%
